Measured values taken from US20180370912A1, “COMPOUNDS AND METHODS FOR TREATING DISEASES MEDIATED BY PROTEIN DISULFIDE ISOMERASE” (Beth Israel Deaconess Medical Center, Inc., priority 2017, published 2018).
Bridge positions count the residues as written; N and C are the ends. Square brackets hold non-standard residues; d marks the D form. Peptide text beside a SMILES is read from it. * marks the point of attachment. Ileψ(thiazoline)Cys = CC[C@H](C)[C@H](N)C1=N[C@H](C(=O)*)CS1; dOrn = NCCC[C@@H](N)C(=O)O

Tests used:
ERp5 [1] = biological target: T1, ERp5 (Homo sapiens, UniProt Q15084); assay: Insulin reductase assay, thiol isomerase selectivity; format: biochemical; details: 10-fold IC50, FIG. 2
T1 construct: recombinant His-tagged full-length ERp5, ERp72 and PDI domain fragments; His; made in house; host or cells: Escherichia coli Origami B (DE3), pET-15b
T1 sequence (Q15084 20-440): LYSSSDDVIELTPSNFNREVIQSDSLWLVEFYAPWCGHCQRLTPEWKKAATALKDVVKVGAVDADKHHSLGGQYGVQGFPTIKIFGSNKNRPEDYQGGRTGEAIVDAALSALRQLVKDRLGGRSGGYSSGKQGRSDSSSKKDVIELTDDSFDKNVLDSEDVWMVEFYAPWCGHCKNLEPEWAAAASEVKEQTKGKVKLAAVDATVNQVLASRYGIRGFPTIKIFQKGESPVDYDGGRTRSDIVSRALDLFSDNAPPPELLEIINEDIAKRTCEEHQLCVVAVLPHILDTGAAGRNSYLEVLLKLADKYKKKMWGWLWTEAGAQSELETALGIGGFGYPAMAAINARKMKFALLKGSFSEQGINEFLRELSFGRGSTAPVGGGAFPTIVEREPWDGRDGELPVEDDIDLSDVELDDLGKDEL
Procedure: (§1) The thiol isomerase-catalyzed reduction of insulin was assayed by measuring the increase in turbidity as detected at an optical density (OD) of 650 nm using a Spectramax M3 (Molecular Devices, Sunnyvale, Calif.). The validation assay consisted of 175 nM of PDI in a solution containing 100 mM potassium phosphate (pH 7.4) containing 0.2 mM bovine insulin, 2 mM EDTA, and 0.3 mM DTT (all purchased from Sigma Aldrich, St. Louis, Mo.), inhibitors were used at the concentrations indicated. The reaction was performed at 25° C. for one hour and thirty minutes. For assays of thiol isomerase selectivity, 11 nM PDI, ERp57 or Thioredoxin, or 33 nM ERpS were assayed in similar buffer conditions as described above and inhibitors were used at the indicated concentration. The reaction was performed at 37° C. for forty-five minutes. For assays of isolated domains studies, 400 nM protein was used, except for a, a′ and ab, in which 800 nM protein was used. The assay was performed in similar buffer conditions as described above. Bepristat 2a and N-(2,4-Dimethoxyphenyl)-N-(1-oxo-2-propyn-1-yl)-2-(2-thienyl)glycyl-glycine ethyl ester (PACMA-31) were used at a final concentration of 15 μM in these studies.

ERp57 [2] = biological target: T2, ERp57 (Homo sapiens, UniProt P30101); assay: as above; format: biochemical; details: FIG. 2
T2 construct: FLAG; made in house; host or cells: Escherichia coli Origami B (DE3), pET-15b
T2 sequence (P30101 25-505): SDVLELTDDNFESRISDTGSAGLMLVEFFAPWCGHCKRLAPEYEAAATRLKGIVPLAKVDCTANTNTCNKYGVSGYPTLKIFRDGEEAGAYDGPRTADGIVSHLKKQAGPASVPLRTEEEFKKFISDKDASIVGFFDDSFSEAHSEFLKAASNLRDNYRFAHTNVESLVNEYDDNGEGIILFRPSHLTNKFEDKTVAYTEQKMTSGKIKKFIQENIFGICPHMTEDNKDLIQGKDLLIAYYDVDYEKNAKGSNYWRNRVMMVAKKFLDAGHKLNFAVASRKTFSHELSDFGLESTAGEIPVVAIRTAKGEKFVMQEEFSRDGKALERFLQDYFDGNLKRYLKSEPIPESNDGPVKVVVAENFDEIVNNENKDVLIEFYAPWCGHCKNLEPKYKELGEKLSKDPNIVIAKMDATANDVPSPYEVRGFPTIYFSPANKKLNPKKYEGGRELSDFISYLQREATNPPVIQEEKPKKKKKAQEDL
Procedure: as §1

thioredoxin [3] = biological target: T3, thioredoxin (Homo sapiens, UniProt P10599); assay: as above; format: biochemical; details: 10-fold IC50, FIG. 2
T3 sequence (P10599 1-105): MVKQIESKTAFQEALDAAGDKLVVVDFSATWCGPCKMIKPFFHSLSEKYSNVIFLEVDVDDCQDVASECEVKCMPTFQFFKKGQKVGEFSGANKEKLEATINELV
Procedure: as §1

PDI [4] = biological target: T4, PDI (Homo sapiens, UniProt P07237); assay: Di-eosin-GSSG disulfide reductase assay; format: biochemical; details: for change of apparent KM in the di-eosin-GSSG assay of PDI reductase activity / change of apparent kcat in the di-eosin-GSSG assay of PDI reductase activity: FIG. 6d
T4 construct: FLAG; made in house; host or cells: Escherichia coli Origami B (DE3), pET-15b
T4 sequence (P07237 18-508): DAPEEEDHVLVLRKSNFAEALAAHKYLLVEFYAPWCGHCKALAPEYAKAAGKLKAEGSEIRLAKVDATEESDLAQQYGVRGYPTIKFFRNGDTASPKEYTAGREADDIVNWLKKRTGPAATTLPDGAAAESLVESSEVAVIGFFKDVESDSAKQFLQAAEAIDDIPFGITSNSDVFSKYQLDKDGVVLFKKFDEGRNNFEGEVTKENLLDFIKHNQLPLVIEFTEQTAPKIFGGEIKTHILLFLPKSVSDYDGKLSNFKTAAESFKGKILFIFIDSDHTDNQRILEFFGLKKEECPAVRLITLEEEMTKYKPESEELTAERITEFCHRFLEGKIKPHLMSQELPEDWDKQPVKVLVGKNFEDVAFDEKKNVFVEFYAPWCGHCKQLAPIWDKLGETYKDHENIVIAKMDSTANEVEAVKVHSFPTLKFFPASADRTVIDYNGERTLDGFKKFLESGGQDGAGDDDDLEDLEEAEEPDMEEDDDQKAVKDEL
Procedure: (§2) The probe di-eosin glutathione disulfide, di-eosin-GSSG, was prepared as previously described in Raturi, A., Vacratsis, P. O., Seslija, D., Lee, L. & Mutus, B., Biochem J 391, 351-357 (2005). Reductase activity of purified thiol isomerases and PDI domains was monitored in a 96-well fluorescence plate format. PDI, AGHA-PDI, ERpS, ERp57, ERp72 and PDI domains were assayed at 50 nM in the presence or absence of the indicated small molecules, peptides or cathepsin G. The assay included 100 mM potassium phosphate (pH 7.4) containing 2 mM EDTA, 5 μM DTT and 150 nM of the di-eosin GSSG probe. The increase in fluorescence was determined for 20 minutes by excitation at 520 nm and emission at 550 nm in a Synergy Biotek 4. The reduction of 150 nM di-eosin-GSSG by 5 μM DTT in the presence or absence of mentioned small molecules, peptides or proteins served as a negative control.
Michaelis Menten analysis was assayed using PDI at 20 nM and small molecules, peptides or cathepsin G at concentrations causing maximal augmentation under similar buffer conditions as described above. 8-point response curves were generated using a range of different di-eosin-GSSG concentrations (50-5000 nM). Enzyme kinetics analysis was performed using Graphpad Prism 5.0.

ERp5 [5] = biological target: T1, ERp5; assay: Maleimide-polyethylene glycol-2-biotin (MPB) binding; details: 150 μM inhibitor, FIG. 2c, FIG. 8
Procedure: (§3) Maleimide-Polyethanol glycol-2-Biotin (MPB) binding experiments were performed in a reaction volume of 37.5 μL with 5 μM of thiol isomerase or bovine serum albumin (BSA) in Tris-buffered saline (TBS), in the presence and absence of 1 mM of N-ethylmaleimide (NEM) or bacitracin, and 150 μM of the mentioned other inhibitors. The reaction mixture was incubated at 37° C. for 1 hour. Subsequently, the reaction mixtures were incubated with 25 μM of MPB. The labeling was performed for 20 minutes at 25° C. A total of 12.5 μL of 4× Laemmli Sample Buffer with 5% β-mercaptoethanol was added to each of the samples, followed by heating at 95° C. for 10 minutes. From each sample, 10 μL was loaded on a 12% SDS-PAGE gel, followed by transfer on a nitrocellulose membrane. After blocking the membrane with TBS-T containing 5% BSA for one hour, the membrane was incubated with a 1:2000 dilution of Cy5-tagged Streptavidin for an hour in the dark. Detection of the immunoblots was performed using ImageQuant LAS 4000 and analysis was performed using ImageQuant TL software.

ERp57 [6] = biological target: T2, ERp57; assay: as above; details: 150 μM inhibitor, FIG. 2c, FIG. 8
Procedure: as §3

thioredoxin [7] = biological target: T3, thioredoxin; assay: as above; details: 150 μM inhibitor, FIG. 2c, FIG. 8
Procedure: as §3

thrombus formation = details: literature; cited from earlier work
full-length PDI = biological target: T5, full-length PDI (Homo sapiens, UniProt P07237); assay: Small-angle X-ray scattering (SAXS); details: PDI complexed with compound; full-length oxidized PDI 40.0 Å, FIG. 5d
T5 construct: FLAG; made in house; host or cells: Escherichia coli Origami B (DE3), pET-15b
T5 sequence (P07237 18-508): as above
Procedure: Further purification of full-length PDI was achieved by gel filtration. PDI (1.5, 3.0 and 4.5 mg/mL) was dialyzed against 20 mM Tris, 150 mM NaCl, 5% glycerol (pH: 8.0) containing 0.5 mM bepristat 1b or 2b or DMSO control at 4° C. overnight. Evaluation by SAXS was performed on the SIBYLS beamline in the Advanced Light Source using a high throughput data collection method.

ERp5 [8] = biological target: T1, ERp5; assay: Di-eosin-GSSG disulfide reductase assay; format: biochemical
Procedure: as §2

ERp57 [9] = biological target: T2, ERp57; assay: Di-eosin-GSSG disulfide reductase assay; format: biochemical
Procedure: as §2

ERp72 = biological target: T6, ERp72 (Homo sapiens, UniProt P13667); assay: Di-eosin-GSSG disulfide reductase assay; format: biochemical
T6 construct: recombinant His-tagged full-length ERp5, ERp72 and PDI domain fragments; His; made in house; host or cells: Escherichia coli Origami B (DE3), pET-15b
T6 sequence (P13667 21-645): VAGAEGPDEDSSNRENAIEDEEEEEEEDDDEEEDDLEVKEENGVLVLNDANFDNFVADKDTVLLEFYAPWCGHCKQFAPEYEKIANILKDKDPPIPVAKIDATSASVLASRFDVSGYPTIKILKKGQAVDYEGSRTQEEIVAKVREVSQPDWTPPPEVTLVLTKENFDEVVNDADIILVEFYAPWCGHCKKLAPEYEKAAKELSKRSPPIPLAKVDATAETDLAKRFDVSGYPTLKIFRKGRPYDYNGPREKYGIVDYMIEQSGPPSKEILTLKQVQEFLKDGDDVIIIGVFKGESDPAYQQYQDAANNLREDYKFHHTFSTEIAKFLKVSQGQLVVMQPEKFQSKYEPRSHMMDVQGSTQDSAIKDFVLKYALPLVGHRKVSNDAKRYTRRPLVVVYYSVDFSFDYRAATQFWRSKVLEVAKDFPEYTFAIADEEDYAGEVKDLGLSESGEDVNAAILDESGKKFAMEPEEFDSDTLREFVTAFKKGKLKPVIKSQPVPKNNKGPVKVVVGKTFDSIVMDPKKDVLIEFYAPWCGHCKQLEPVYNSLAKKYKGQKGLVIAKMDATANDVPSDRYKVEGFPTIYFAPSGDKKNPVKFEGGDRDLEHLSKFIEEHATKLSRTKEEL
Procedure: as §2

PDI [10] = biological target: T4, PDI; details: cited from earlier work

## CC[C@H](C)[C@H](N)C1=N[C@H](C(=O)N[C@@H](CC(C)C)C(=O)N[C@H](CCC(=O)O)C(=O)N[C@H](C(=O)N[C@H]2CCCCNC(=O)[C@H](CC(N)=O)NC(=O)[C@@H](CC(=O)O)NC(=O)[C@H](Cc3cnc[nH]3)NC(=O)[C@@H](Cc3ccccc3)NC(=O)[C@H]([C@@H](C)CC)NC(=O)[C@@H](CCCN)NC2=O)[C@@H](C)CC)CS1 [bacitracin] ({Ileψ(thiazoline)Cys}-L[dE]IK[dOrn]I[dF]H[dD]N; lactam 4-C)
ERp5 [1]
  inhibition of reductase activity of ERp5: showed activity against all thiol isomerases tested
ERp57 [2]
  inhibition of reductase activity of ERp57: showed activity against all thiol isomerases tested
Thioredoxin [3]
  inhibition of reductase activity of thioredoxin: showed activity against all thiol isomerases tested
PDI [4]
  cleavage of di-eosin-GSSG probe by PDI (reductase activity at catalytic cysteines): blocked PDI-mediated cleavage of di-eosin-GSSG
ERp5 [5]
  reaction of MPB with the catalytic cysteines of ERp5: interfered with the reaction of maleimide-polyethylene glycol-2-biotin (MPB)
ERp57 [6]
  reaction of MPB with the catalytic cysteines of ERp57: interfered with the reaction of maleimide-polyethylene glycol-2-biotin (MPB)
Thioredoxin [7]
  reaction of MPB with the catalytic cysteines of thioredoxin: interfered with the reaction of maleimide-polyethylene glycol-2-biotin (MPB)
Thrombus formation
  thrombus formation in vivo: inhibits thrombus formation in vivo

## CCOC(=O)c1c(CNCCN(CC)CC)n(-c2ccccc2)c2cc(Br)c(O)cc12 [bepristat 2b]
full-length PDI
  gyration radius (Rg) of PDI: 35.9 Å

## cathepsin G: a protein substrate of PDI
PDI [4]
  cleavage of di-eosin-GSSG probe by PDI (reductase activity at catalytic cysteines): elicits enhanced reductase activity
  change of apparent KM in the di-eosin-GSSG assay of PDI reductase activity: decreased the apparent KM
  change of apparent kcat in the di-eosin-GSSG assay of PDI reductase activity: None of them altered the apparent kcat
ERp5 [8]
  cleavage of di-eosin-GSSG by ERp5 (catalytic activity): inhibited the catalytic activity of ERp5 and ERp57 to varying degrees
ERp57 [9]
  cleavage of di-eosin-GSSG by ERp57 (catalytic activity): inhibited the catalytic activity of ERp5 and ERp57 to varying degrees
ERp72
  cleavage of di-eosin-GSSG by ERp72 (catalytic activity): augmented the catalytic activity of ERp72

## C[C@H](N)C(=O)NCC(=O)N[C@H]1CSSC[C@@H](C(=O)O)NC(=O)[C@H](CO)NC(=O)[C@H]([C@@H](C)O)NC(=O)[C@H](Cc2ccccc2)NC(=O)[C@H]([C@@H](C)O)NC(=O)[C@H](CCCCN)NC(=O)[C@H](Cc2c[nH]c3ccccc23)NC(=O)[C@H](Cc2ccccc2)NC(=O)[C@H](Cc2ccccc2)NC(=O)[C@H](CC(N)=O)NC(=O)[C@H](CCCCN)NC1=O [somatostatin, reference compound]
PDI [4]
  change of apparent KM in the di-eosin-GSSG assay of PDI reductase activity: decreased the apparent KM

## mastoparan [reference compound]
PDI [4]
  cleavage of di-eosin-GSSG probe by PDI (reductase activity at catalytic cysteines): enhanced the ability of PDI to cleave di-eosin-GSSG in a dose-dependent manner
  change of apparent KM in the di-eosin-GSSG assay of PDI reductase activity: decreased the apparent KM
  change of apparent kcat in the di-eosin-GSSG assay of PDI reductase activity: None of them altered the apparent kcat
ERp5 [8]
  cleavage of di-eosin-GSSG by ERp5 (catalytic activity): inhibited the catalytic activity of ERp5 and ERp57 to varying degrees
ERp57 [9]
  cleavage of di-eosin-GSSG by ERp57 (catalytic activity): inhibited the catalytic activity of ERp5 and ERp57 to varying degrees
ERp72
  cleavage of di-eosin-GSSG by ERp72 (catalytic activity): augmented the catalytic activity of ERp72
PDI [10]
  PDI activity in RNase refolding assay: inhibits PDI activity in an RNase refolding assay
